{
  "source": "patent US20050239743A1",
  "about": "“Compositions and methods to inhibit restenosis” (Pro-Pharmaceuticals, Inc., priority 2004, published 2005)",
  "origin": "cited, not measured here",
  "settings": "long-term use 10,000 units/day, s.c., following coronary angioplasty",
  "data": [
    {"substance": "heparin", "values": [
      {"measurement": "abnormal hemorrhage supervening", "result": 41, "unit": "%"},
      {"measurement": "coronary restenosis, share of the cases", "setting": "control restenosis value 33%", "result": 82, "unit": "%"}
    ]}
  ]
}
